Experimental findings from PMC5384220 (Nature Communications, 2017) are described below.

For one test, the target named is T1, His-KDM4A1-359-Bio (Homo sapiens, UniProt O75164).
T1 construct: KDM4A protein (residues 1-359) was cloned into the pNIC-Bio3 plasmid, which incorporates a C-terminal AviTag; made in house; host or cells: E. coli BL21(DE3)Rosetta co-transfected with pCDF-BirA
T1 sequence (O75164 1-359): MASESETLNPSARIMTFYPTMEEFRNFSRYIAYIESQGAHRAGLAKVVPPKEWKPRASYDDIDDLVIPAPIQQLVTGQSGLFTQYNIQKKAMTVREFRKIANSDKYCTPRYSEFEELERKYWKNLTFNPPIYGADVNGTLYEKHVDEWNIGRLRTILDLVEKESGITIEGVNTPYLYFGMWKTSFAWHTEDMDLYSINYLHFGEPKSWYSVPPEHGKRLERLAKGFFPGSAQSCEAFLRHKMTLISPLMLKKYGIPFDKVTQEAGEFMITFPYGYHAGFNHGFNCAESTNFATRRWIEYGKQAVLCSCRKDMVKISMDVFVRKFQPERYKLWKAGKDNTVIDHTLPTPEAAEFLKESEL
Put plainly: Biolayer interferometry binding to KDM4A.

The next test deals with T2, FLAG-KDM4E (Homo sapiens, UniProt B2RXH2).
T2 construct: expressed in transfected cells; host or cells: U2OS
T2 sequence (B2RXH2 1-506): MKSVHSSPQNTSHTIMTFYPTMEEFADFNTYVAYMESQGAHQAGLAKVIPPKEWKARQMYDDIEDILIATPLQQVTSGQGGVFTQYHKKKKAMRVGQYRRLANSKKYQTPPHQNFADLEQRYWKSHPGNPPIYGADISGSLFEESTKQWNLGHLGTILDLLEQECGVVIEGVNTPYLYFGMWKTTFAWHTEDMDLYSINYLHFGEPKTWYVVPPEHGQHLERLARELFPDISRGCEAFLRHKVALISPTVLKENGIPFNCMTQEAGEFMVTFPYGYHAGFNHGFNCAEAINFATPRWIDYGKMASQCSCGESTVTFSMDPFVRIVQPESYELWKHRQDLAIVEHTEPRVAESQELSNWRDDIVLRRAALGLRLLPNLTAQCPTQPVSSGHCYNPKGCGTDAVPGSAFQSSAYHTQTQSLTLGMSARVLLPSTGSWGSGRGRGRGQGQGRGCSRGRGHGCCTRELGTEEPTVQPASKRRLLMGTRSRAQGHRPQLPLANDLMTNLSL
Put plainly: CETSA, FLAG-KDM4E in U2OS cells. As to conditions: 0.5 µM. In kind it is cell-based.

A further test deals with T3, KDM4A (Homo sapiens, UniProt O75164).
T3 construct: KDM4A 1-359 E.coli; Hexa-His (N); made in house; host or cells: E. coli
T3 sequence (O75164 1-359): T1 sequence (O75164 1-359)
Put plainly: AlphaScreen demethylase activity assay, KDM4A. As to conditions: ratio of IC50 values. In kind it is biochemical. Here is the method:
IC50 values for KDM2–6 were measured using an AlphaScreen assay as described. The appropriate KDM (5 μl) was pre-incubated with an inhibitor (0.1 μl in DMSO) or DMSO for 15 min before the addition of 5 μl mixture of biotinylated peptide substrates, 2OG, ferrous ammonium sulfate (1–10 μM final) and ascorbate (100 μM final) to initiate the demethylation reaction. The reaction was quenched with 5 μl of 30 mM EDTA at predetermined reaction times for each enzyme (initial rate). Demethylated product was detected by addition of 5 μl of AlphaScreen donor and acceptor beads (AlphaScreen General IgG Detection Kit, 0.02 mg ml^−1 final each) pre-incubated with antibody. The plates were read after 1 h incubation in a BMG Labtech Pherastar FS plate reader. Data were normalized to a no enzyme control and IC50 values were calculated using nonlinear regression curve fits using GraphPad Prism. Assay buffer (50 mM HEPES pH 7.5, BSA (0.1% w/v) and Tween-20 (0.01% v/v)) was used throughout, except for dilution of stock ferrous ammonium sulfate solutions where water was used. The enzyme, substrate and antibody concentrations used are described in Supplementary Table 3. A fluorescence-based LSD1 inhibitor screening assay kit (Cayman, 700120) was used for KDM1/LSD1 assay. Assays for prolyl hydroxylase domain 2 and factor inhibiting HIF using matrix-assisted laser desorption/ionization–time of flight MS were performed as previously described. Prism 5.0 (GraphPad) was used to generate and to fit dose–response curves. IC50 values were determined by plotting percentage inhibition versus compound concentration relative to positive (vehicle) and negative (no enzyme) controls, using normalized dose–response (variable slope) fit. The reported values are the mean of multiple experiments (n≥3). The formaldehyde dehydrogenase coupled KDM assay was used to determine the mode of inhibition, using 0.5 μM His-KDM4A1–359. Prism 5.0 (GraphPad) was used to fit in mix-mode inhibition, to determine the kinetic parameters. Binding constants for CPs and H3(1–15)K9me3 were measured using biolayer interferometry (OctetRed 384, ForteBio) in buffer (50 mM HEPES (pH 7.5), 150 mM NaCl, 10 μM ammonium iron(II) sulphate). His-KDM4A1–359-Bio (70 nM) was immobilized onto super streptavidin biosensor and subjected to different peptide concentrations in buffer. Data analysis was performed using ForteBio Data Aalysis (v6.4).
Construct Expression [E] / nM [2OG] / µM [Fe(II)] / µM Peptide / nM Peptide sequence Antibody Source […]
Supplementary Table 3. AlphaScreen assay parameters for 2OG oxygenases used for this study. The table was dapted from 10. Assays were performed at 2OG concentration near the 2OG Km values determined experimentally.11 All enzymes were expressed and purified as described.10-12

In test [1] the test system is H3K9me3/H3K36me3 in HeLa cells. As to the kind of experiment: Immunofluorescence of global histone methylation, 72 h dosing. The test is classed as cell-based. As to conditions: 72 h treatment. From the text:
Supplementary Figure 12. Immunofluorescence analysis of global histone methylation levels after 72hr dosing of cyclic peptides in HeLa cells. (a)-(c) Immunofluorescence analysis of HeLa cells dosed with cyclic peptides for 72 hrs. Maximum intensity projected images of 3D confocal z-stacks showing nuclei stained with […]
DMSO and CP2 treated cells. Bar represents 50µm. Global H3K9me3 (d) and associated nuclei count for the […]
staining, (h) global H3K4me3 and (i) global H3K27me3 staining. An increase in fluorescence intensity, […]
over certain concentration ranges. Average +/- s.e.m (n > 100 cells) are shown except at concentrations of […]
A generic 2OG oxygenase inhibitor 5-carboxy-8-
Immunofluorescence (IF) assay […]
with 0.5% FBS and 1% Pen-Strep. […]
grade plate (Becton Dickinson) and left overnight to adhere. Cells were dosed with cyclic […]
After 30min blocking (3% FBS in […]
three times after each incubation. […]
Image acquisition and analysis […]
image immunostained cells in a 96-well plate configuration. For each well, the system […]
The average intensity for each […]
analysed using GraphPad Prism 5. […]

Entries after “also recorded” stand apart in the source; their conditions may differ.

Experimental for FLAG-KDM4E: For CETSA melting curve experiments, 80% confluent U2OS cells in a 75 cm^2 flask were transfected with a plasmid encoding full-length Flag-tagged KDM4A1–1,064 (ref. [15]) or KDM4E1–506 (ref. [20]) using Lipofectamine 2000 (Thermo Scientific) and incubated for 4 h. The cells were washed with PBS buffer and media replaced with fresh DMEM with 10% FBS, supplemented with cyclic peptides in DMSO (0.1% DMSO final). Cell dosing was carried out for 20 h at 37 °C. Control cells were dosed only with DMSO. The cells were trypsinized and washed thrice with PBS, by centrifugation (300 g, 3 min, 4 °C). Cells were re-suspended in PBS supplemented with Complete Protease inhibitor cocktail (Sigma) and divided into 8–10 aliquots (100 μl) containing equal cell numbers in PCR tubes. For ITDRF CETSA experiments, approximately 6 × 10^6 cells were seeded evenly into nine 25 cm^2 flask and adhered before transfection. After 4 h of incubation, the cells were washed with PBS buffer and the media replaced with fresh DMEM with 10% FBS supplemented with cyclic peptides at a final concentration between 0 and 4,000 nM (0.1% DMSO final). Cells were trypsinized and washed thrice with PBS using centrifugation (300 g, 3 min, 4 °C). Cells were re-suspended in PBS supplemented with protease inhibitor cocktail (Sigma), aliquots (100 μl) containing equal cell numbers in PCR tubes were prepared. […] For ITDRF, tubes were incubated at approximately the Tm of the proteins of interest as determined by CETSA melting curve experiments, for example, 55 °C (Tm for actin) for 3 min, followed by room temperature for 3 min. […]
The samples (supernatant) were run on SDS–PAGE (NuPage Novex Bis-Tris 4–12% polyacrylamide gels with NuPAGE MES SDS running buffer (Thermo Scientific)) and transferred onto nitrocellulose membranes using either the iBlot blotting system. FLAG-KDM4A levels were determined by immunoblotting using a monoclonal mouse anti-FLAG primary antibody (F1804, Sigma), at a dilution of 1: 1,000 in PBS-T buffer containing Seablock Reagent Salmon Plasma (2% v/v, Calbiochem). […]
Experimental for His-KDM4A1-359-Bio: The formaldehyde dehydrogenase coupled KDM assay was used to determine the mode of inhibition[34], using 0.5 μM His-KDM4A1–359. Prism 5.0 (GraphPad) was used to fit in mix-mode inhibition, to determine the kinetic parameters. Binding constants for CPs and H3(1–15)K9me3 were measured using biolayer interferometry (OctetRed 384, ForteBio) in buffer (50 mM HEPES (pH 7.5), 150 mM NaCl, 10 μM ammonium iron(II) sulphate). His-KDM4A1–359-Bio (70 nM) was immobilized onto super streptavidin biosensor and subjected to different peptide concentrations in buffer. Data analysis was performed using ForteBio Data Aalysis (v6.4).
KDM4A1-359 was immobilized and analysed for binding to peptides at different concentrations.
The concentration of KDM4A in the assay mixture was 0.5 µM.

Turning to DYVYNTRSGWRWYTC [CP2], at His-KDM4A1-359-Bio, the “KDM4A Binding kdiss” value amounted to 0.00407 s⁻¹ and the “KDM4A Binding kon” value was 137000 M⁻¹ s⁻¹. Besides, the “CETSA stabilization / Tm shift of FLAG-KDM4E” value at FLAG-KDM4E is “No significant changes in the Tm shift; also recorded: not stabilized”. In addition, at KDM4A, the “Intra-subfamily selectivity KDM4A-C over KDM4D-E” value is listed as above 100 fold; the “Selectivity by IC50 for KDM4 over other JmjC-demethylase families, PHD2, FIH and KDM1A” value is on record as above 160 fold. For the same sequence, the “Change in global H3K9me3/H3K36me3 levels” value in test [1] is recorded as “did not have any apparent effect; also recorded: no discernible changes”.
